Measurements reported in patent publication US20100266604A1, “USE OF TAM RECEPTOR INHIBITORS AS IMMUNOENHANCERS AND TAM ACTIVATORS AS IMMUNOSUPPRESSORS” (The Salk Institute for Biological Studies, priority 2007, published 2010).
Values belong to the molecule of their own block, whether it stands above or below them.

Assays:
[1] = molecular target: TAM receptors (on mouse dendritic cells); test: cell-based or functional assay
[2] = test system: TLR-induced cytokine production in DCs; test: DC activation assay: TLR-induced cytokine production (ELISA / ISRE luciferase reporter); assay type: cell-based, mouse; conditions: IFNα, 10 nM CpG, 15 hours, 3 nM ProS (FIG. 8A)
Method: Splenic DC or BM-DCs (1×10^6 cells/ml) were cultured overnight in serum-free medium (StemSpan, StemCell Technologies Inc.) in the presence of the indicated concentrations of LPS from Salmonella minnesota R595 Re (Alexis), CpG-ODN 1668 (TCCATGACGTTCCGATGCT; SEQ ID NO: 19; Integrated DNA Technologies) or Poly I:C (InvivoGen) alone or in the presence of murine recombinant Gas6 (R&D Systems) or murine recombinant Protein S (produced as described in Prasad et al., (2006) Mol Cell Neurosci 33:96-108). Cytokine production was quantified in cell-free supernatants by ELISA (ebioscience for IL-12, IL-6 and TNFα and PBL-biomedical for IFNα) or by a luciferase assay using a cell line containing an ISRE-responsive element luciferase reporter construct for Type I IFN (Jiang et al., (2005) Nat Immunol 6:565-570).

[3] = test system: SOCS1 and SOCS3 mRNA in DCs; test: Q-PCR of SOCS1 and SOCS3 mRNA in DCs; assay type: cell-based, mouse; conditions: for SOCS1 mRNA induction: 300 U/ml IFNα
Method: (§1) Splenic DCs (1×10^6 cells/ml) or BM-DCs (5×10^6 cells/ml) were cultured in serum-free medium and treated with the indicated concentrations of murine recombinant Gas6, murine recombinant Protein S, the TLR ligands indicated above, recombinant mouse IFNα (PBL Biomedical laboratories), recombinant mouse Axl-FC chimera (R&D), cyclohexamide (Sigma) or Actinomycin D (Sigma). Whole cell lysates and RNA extraction were performed as indicated below.
(§2) After stimulation, cells were harvested, and total RNA was isolated using the RNeasy mini kit (Qiagen). Reverse transcription was performed according to manufacturer instructions with RT Superscript III (Invitrogen). PCR reactions were performed on an ABI Prism 7700 Sequence Detection System using SYBRGreen PCR master mix (Applied Biosystems). Each reaction was normalized against the expression of β-actin or GAPDH. Analyses of dissociation curves were performed with SDS software (Applied Biosystems) to ensure the absence of nonspecific amplification. Q-PCR primers used herein are listed below.

[4] = test system: Axl mRNA and protein in DCs; test: Axl expression in DCs (Q-PCR, FACS, Western blot); assay type: cell-based, mouse; conditions: for Axl expression by Western blot: WT DCs
Method: as §1
DCs were washed in PBS and harvested in NuPage LDS sample buffer (Invitrogen) with 100 μM DTT. Whole cell lysates were resolved by electrophoresis, proteins were transferred to a PVDF membrane (Immobilon P, Millipore), blocked in 3% BSA/TBS-Tween-20 and probed with the indicated antibodies. For fluorescent western blotting with the Odyssey system, proteins were transferred to an Immobilon-FL PVDF membrane (Millipore) and incubated with two primary antibodies in 0.1% casein/PBS-Tween-20. Following incubation with fluorescence-labeled secondary antibodies, membranes were scanned with the Odyssey imaging system (LI-COR).
as §2
Cells were incubated for 15 minutes with a rat mAb to CD16/32 to block Fc receptors and then with primary antibodies for 20 minutes on ice. The following mAbs against murine molecules were used: allophycocyanin- and phycoerythrin-conjugated anti-CD11c, FITC-conjugated anti-MHC class I (H-2K^b) and anti-MHC class II (I-A^b), PerCP-Cy5.5-conjugated anti-CD3, anti-CD19 and anti-NK1.1 (all from BD Pharmingen). For Axl staining, cells were processed as described, fixed with 10% paraformaldehyde, permeabilized with Saponin (0.1%, Sigma), incubated with Axl (M-20) antibody for 30 minutes and then with anti-goat Cy5 antibody (Jackson ImmunoResearch). Fluorescent cells were acquired with a FacsSort flow cytometer (Becton Dickinson) and analyzed with FlowJo (Tree Star) software.

[5] = test system: IRF-7 and IFI-204 mRNA in DCs; test: Q-PCR of IRF-7 and IFI-204 mRNA in DCs; assay type: cell-based, mouse; conditions: splenic DCs, 300 U/ml IFNα
Method: as §1, §2

[6] = molecular target: T1, STAT1 (mouse, UniProt P42225); test: co-immunoprecipitation from BM-DC whole cell lysates, untreated (-) or treated 20 min with 50 nM Gas6 (+); IP with antibody to the IFN receptor R1 chain, immunoblot for STAT1
T1 construct: endogenous full-length protein in the cell lysate; also called total STAT1
T1 sequence (transcription factor, looked up): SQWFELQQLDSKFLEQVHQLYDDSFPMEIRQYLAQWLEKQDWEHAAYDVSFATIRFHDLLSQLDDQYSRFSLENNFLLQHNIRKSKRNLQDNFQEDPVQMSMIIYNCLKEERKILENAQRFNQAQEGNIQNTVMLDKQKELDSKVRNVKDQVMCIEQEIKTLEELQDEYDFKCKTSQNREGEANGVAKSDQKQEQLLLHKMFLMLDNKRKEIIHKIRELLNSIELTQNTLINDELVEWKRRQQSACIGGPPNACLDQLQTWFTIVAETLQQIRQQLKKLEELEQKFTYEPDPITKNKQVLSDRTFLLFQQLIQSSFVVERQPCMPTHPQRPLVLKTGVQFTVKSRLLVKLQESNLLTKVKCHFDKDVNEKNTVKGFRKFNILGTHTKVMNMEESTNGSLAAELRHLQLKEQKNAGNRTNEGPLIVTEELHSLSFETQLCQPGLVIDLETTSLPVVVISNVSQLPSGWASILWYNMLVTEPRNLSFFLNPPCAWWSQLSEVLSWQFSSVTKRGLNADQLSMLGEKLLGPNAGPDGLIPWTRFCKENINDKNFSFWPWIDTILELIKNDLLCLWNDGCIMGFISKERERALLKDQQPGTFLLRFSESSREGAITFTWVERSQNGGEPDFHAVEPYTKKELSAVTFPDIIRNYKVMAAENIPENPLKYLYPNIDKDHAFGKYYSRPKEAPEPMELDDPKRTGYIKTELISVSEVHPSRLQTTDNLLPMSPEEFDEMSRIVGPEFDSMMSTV

[7] = molecular target: T2, Axl (mouse, endogenous in bone marrow-derived dendritic cells) (mouse, UniProt Q00993 19-888); test: co-immunoprecipitation from BM-DC whole cell lysates, untreated (-) or treated 20 min with 50 nM Gas6 (+); IP with antibody to the IFN receptor R2 chain, immunoblot for Axl
T2 construct: whole, on cells; Endogenous protein co-immunoprecipitated from Triton X-100 lysates of mouse BM-DCs, not a recombinant construct; also called TAM receptor
T2 sequence (looked up): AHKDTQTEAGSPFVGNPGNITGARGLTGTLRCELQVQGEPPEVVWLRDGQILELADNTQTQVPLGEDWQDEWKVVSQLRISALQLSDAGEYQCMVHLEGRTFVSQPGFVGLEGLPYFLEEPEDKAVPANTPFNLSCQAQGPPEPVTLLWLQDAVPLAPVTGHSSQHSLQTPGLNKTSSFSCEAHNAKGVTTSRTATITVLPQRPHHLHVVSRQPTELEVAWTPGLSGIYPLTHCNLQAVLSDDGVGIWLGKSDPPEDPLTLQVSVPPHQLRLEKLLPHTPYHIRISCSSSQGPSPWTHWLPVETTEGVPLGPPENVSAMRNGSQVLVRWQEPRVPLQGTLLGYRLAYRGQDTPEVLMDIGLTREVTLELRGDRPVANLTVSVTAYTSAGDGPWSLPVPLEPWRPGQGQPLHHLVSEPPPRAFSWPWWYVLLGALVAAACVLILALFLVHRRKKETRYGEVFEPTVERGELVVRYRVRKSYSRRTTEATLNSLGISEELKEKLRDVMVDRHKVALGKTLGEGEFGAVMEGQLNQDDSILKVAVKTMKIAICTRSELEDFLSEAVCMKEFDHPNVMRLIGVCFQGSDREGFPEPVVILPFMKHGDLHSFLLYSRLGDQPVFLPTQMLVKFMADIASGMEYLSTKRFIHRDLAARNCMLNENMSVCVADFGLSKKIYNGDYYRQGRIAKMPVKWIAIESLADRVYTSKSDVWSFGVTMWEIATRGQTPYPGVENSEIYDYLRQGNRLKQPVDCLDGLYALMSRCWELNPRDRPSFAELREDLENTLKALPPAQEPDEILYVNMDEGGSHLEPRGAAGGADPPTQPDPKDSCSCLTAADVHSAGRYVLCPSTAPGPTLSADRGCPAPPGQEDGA

- SOCS1 mRNA expression in BM-DCs (Q-PCR) after addition of 50 nM Gas6 [1]: 10 fold
- SOCS3 mRNA expression in BM-DCs (Q-PCR) after addition of 50 nM Gas6 [1]: 10 fold
Molecule: murine recombinant Gas6 (R&D Systems) (from UniProt Q61592 28-674) (ligand)

- inhibiting TLR-induced cytokine production in WT DCs, compared with Gas6 [2]: equally effective
Molecule: ProS: murine recombinant Protein S, the second agonist for TAM receptors

Molecule: IFNα
- SOCS1 mRNA expressed by TAM TKO DCs relative to WT DCs ([3]; IFN-treated, integrated over the 6-hour time course): ~24%
- SOCS1 mRNA induction ([3]; TAM TKO splenic DCs): significantly blunted
- SOCS1 mRNA induction ([3]; WT splenic DCs, 2 hours, sustained up to 6 hours): robust induction
- Axl induction ([4]; STAT1−/− DCs): lost
- Axl expression by Western blot [4]: substantial up-regulation
- IFNα-induced IRF-7 and IFI-204 mRNA levels, WT versus TAM TKO DCs [5]: indistinguishable

Molecule: poly I:C
- Axl induction ([4]; Ifnar−/− DCs): lost
- Axl induction ([4]; STAT1−/− DCs): lost
- Axl expression by Western blot [4]: substantial up-regulation

- binding result [6]: no binding
B1: R1 chain of the type I IFN receptor (mouse, endogenous in BM-DCs) (receptor, UniProt P33896 27-590, looked up)
chain: ENLKPPENIDVYIIDDNYTLKWSSHGESMGSVTFSAEYRTKDEAKWLKVPECQHTTTTKCEFSLLDTNVYIKTQFRVRAEEGNSTSSWNEVDPFIPFYTAHMSPPEVRLEAEDKAILVHISPPGQDGNMWALEKPSFSYTIRIWQKSSSDKKTINSTYYVEKIPELLPETTYCLEVKAIHPSLKKHSNYSTVQCISTTVANKMPVPGNLQVDAQGKSYVLKWDYIASADVLFRAQWLPGYSKSSSGSRSDKWKPIPTCANVQTTHCVFSQDTVYTGTFFLHVQASEGNHTSFWSEEKFIDSQKHILPPPPVITVTAMSDTLLVYVNCQDSTCDGLNYEIIFWENTSNTKISMEKDGPEFTLKNLQPLTVYCVQARVLFRALLNKTSNFSEKLCEKTRPGSFSTIWIITGLGVVFFSVMVLYALRSVWKYLCHVCFPPLKPPRSIDEFFSEPPSKNLVLLTAEEHTERCFIIENTDTVAVEVKHAPEEDLRKYSSQTSQDSGNYSNEEEESVGTESGQAVLSKAPCGGPCSVPSPPGTLEDGTCFLGNEKYLQSPALRTEPALLC
notes: whole, on cells; Endogenous protein immunoprecipitated from mouse BM-DC lysates; also called IFNAR1; IFN receptor R1 chain

- binding result [7]: no binding
B2: IFNAR2 (receptor, mouse, UniProt O35664 22-513, looked up)
receptor chain: SLETITPSAFDGYPDEPCTINITIRNSRLILSWELENKSGPPANYTLWYTVMSKDENLTKVKNCSDTTKSSCDVTDKWLEGMESYVVAIVIVHRGDLTVCRCSDYIVPANAPLEPPEFEIVGFTDHINVTMEFPPVTSKIIQEKMKTTPFVIKEQIGDSVRKKHEPKVNNVTGNFTFVLRDLLPKTNYCVSLYFDDDPAIKSPLKCIVLQPGQESGLSESAIVGITTSCLVVMVFVSTIVMLKRIGYICLKDNLPNVLNFRHFLTWIIPERSPSEAIDRLEIIPTNKKKRLWNYDYEDGSDSDEEVPTASVTGYTMHGLTGKPLQQTSDTSASPEDPLHEEDSGAEESDEAGAGAGAEPELPTEAGAGPSEDPTGPYERRKSVLEDSFPREDNSSMDEPGDNIIFNVNLNSVFLRVLHDEDASETLSLEEDTILLDEGPQRTESDLRIAGGDRTQPPLPSLPSQDLWTEDGSSEKSDTSDSDADVGDGYIMR
notes: endogenous full-length protein in the cell lysate; also called R2 chain of the type I IFN receptor; IFN receptor R2 chain
